In US9187424B1, “Aryl dihydropyridinones and piperidinone MGAT2 inhibitors” (Bristol-Myers Squibb Company, priority 2011, dated 2015):

How the values were obtained:
Human MGAT-2 [1] = target: T1, Human MGAT-2 (Homo sapiens (Human), UniProt Q3SYC2); assay: MGAT SPA Assay; type: biochemical; conditions: membranes from Sf9 cells expressing recombinant human MGAT2; 2-monooleoylglycerol and [3H]-oleoyl-CoA;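 also: inhibition scaled between DMSO vehicle as full MGAT2 activity and membranes of uninfected Sf9 cells as blank, IC50 fitted by logistic curve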
T1 sequence (Q3SYC2 whole entry): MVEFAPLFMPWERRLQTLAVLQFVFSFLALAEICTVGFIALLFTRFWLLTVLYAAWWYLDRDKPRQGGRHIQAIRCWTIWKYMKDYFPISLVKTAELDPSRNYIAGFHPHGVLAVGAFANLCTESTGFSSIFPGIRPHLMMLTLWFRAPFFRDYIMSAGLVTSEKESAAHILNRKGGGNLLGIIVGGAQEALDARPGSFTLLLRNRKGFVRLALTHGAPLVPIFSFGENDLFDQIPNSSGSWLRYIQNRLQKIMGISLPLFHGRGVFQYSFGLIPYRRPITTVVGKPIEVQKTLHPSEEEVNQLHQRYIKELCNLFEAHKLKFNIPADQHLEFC

Human MGAT-2 [2] = target: T1, Human MGAT-2; assay: MGAT LCMS Assay (human MGAT-2); type: biochemical; conditions: human MGAT-2 membranes expressed in Sf9 cells; 2-oleoylglycerol and oleoyl-Coenzyme A; read-out: h-MGAT2 IC50 (nM) LCMS Assay;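 also: diolein product quantified by LC/MS with positive APCI, expressed as peak area ratio versus an internal standard, and this ratio used to derive IC50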

SMILES | IC50 (Human MGAT-2 [1]) [nM] | IC50 (Human MGAT-2 [2]) [nM]
COc1ccc(C2=C(C#N)C(=O)NC(c3ccc(OCCCC(F)(F)F)cc3)(C(F)(F)F)C2)c(F)c1 (stereo not drawn) [Example 91] | 916 | 2
O=C1NC(c2ccc(OCCCC(F)(F)F)cc2)(C(F)(F)F)CC(c2ccc(OC(F)F)cc2)=C1c1nn[nH]n1 (stereo not drawn) [Example 93] | 37 | 30
COc1ccc(C2=C(c3nn[nH]n3)C(=O)NC(c3ccc(OCCCC(F)(F)F)cc3)(C(F)(F)F)C2)c(F)c1 (stereo not drawn) [Example 95] | 95 | 43
O=C1NC(c2ccc(OCCCC(F)(F)F)cc2)(C(F)(F)F)CC(c2ccc(C(F)(F)F)cc2)=C1c1nn[nH]n1 (stereo not drawn) [Example 98] | 154 | 69
Cc1ccc(C2=C(NC(=O)c3ccccc3C)C(=O)N[C@@](c3ccc(OCCCC(F)(F)F)cc3)(C(F)(F)F)C2)cc1 [Example 105, (S)-2-Methyl-N-(2-oxo-4-p-tolyl-6-(4-(4,4,4-trifluorobutoxyl)phenyl)-6-(trifluoromethyl)-1,2,5,6-tetrahydropyridin-3-yl)benzamide] | 672 | 24
Cc1ccc(C2=C(c3nn[nH]n3)C(=O)NC(c3ccc(Br)cc3)(C(F)(F)F)C2)cc1 (stereo not drawn) [Example 112] | 1300 | 204
Cc1ccc(C2=C(C(=O)Nc3nn[nH]n3)C(=O)NC(c3ccc(C4=CCCC4)cc3)(C(F)(F)F)C2)cc1 (stereo not drawn) [Example 126] | 1870 | 33
Cc1ccc(C2=C(C(=O)Nc3nn[nH]n3)C(=O)NC(c3cccc(C4=CCCCC4)c3)(C(F)(F)F)C2)cc1 (stereo not drawn) [Example 127] | 655 | 10
COc1ccc(C2=C(n3cnnn3)C(=O)NC(c3ccc(OCCCC(F)(F)F)cc3)(C(F)(F)F)C2)c(F)c1 (stereo not drawn) [Example 142] | 93 | 10
O=C1NC(c2ccc(OCCCC(F)(F)F)cc2)(C(F)(F)F)CC(c2ccc(OC(F)F)cc2)=C1n1cnnn1 (stereo not drawn) [Example 149] | 53 | 6
Cc1ccc(C2=C(NC(=O)c3cc(C)no3)C(=O)NC(c3ccc(OCCCC(F)(F)F)cc3)(C(F)(F)F)C2(F)F)cc1 (stereo not drawn) [Example 150] | 11 | 3
CCCCCCCNC(=O)C1(C)CC(c2ccc(C)cc2)=C(C(=O)Nc2ccc(OC)cc2)C(=O)N1 (stereo not drawn) [Example 166] | 237 | 102
CCCCOc1ccc(C2(C(F)(F)F)CC(c3ccc(OC)cc3)=C(NC(=O)c3ccno3)C(=O)N2)cc1 (stereo not drawn) [Example 172] | 16 | 3
CCCCCCCCCCCCCCCCNC(=O)C1(C)CC(c2ccc(C)cc2)=C(C(=O)Nc2ccc(OC)cc2)C(=O)N1 (stereo not drawn) [Example 173] | 43 | 63
CCCCCCCCNC(=O)C1(C)CC(c2ccc(C)cc2)=C(C(=O)Nc2ccc(OC)cc2)C(=O)N1 (stereo not drawn) [Example 174] | 237 | 60
COc1ccc(NC(=O)C2=C(c3ccc(C)cc3)CC(C)(C(=O)NCCCCc3ccccc3)NC2=O)cc1 (stereo not drawn) [Example 178] | 47 | 78

Now from value to compound:

IC50 (Human MGAT-2 [1]) [nM] | IC50 (Human MGAT-2 [2]) [nM] | SMILES
32 | 4 | Cc1ccc(C2=C(c3ccc(OC(F)(F)F)cc3)C(=O)NC(c3ccc(OCCCC(F)(F)F)cc3)(C(F)(F)F)C2)cc1 (stereo not drawn) [Example 94]
379 | 108 | O=C1NC(c2ccc(OCCCC(F)(F)F)cc2)(C(F)(F)F)CC(c2ccc(Cl)cc2)=C1c1nn[nH]n1 (stereo not drawn) [Example 101]
9 | 7 | Cc1ccc(C2=C(C(=O)Nc3ccc(-c4nnn[nH]4)nc3)C(=O)NC(c3ccc(OCCCC(F)(F)F)cc3)(C(F)(F)F)C2)cc1 (stereo not drawn) [Example 111]
32 | 4 | Cc1ccc(C2=C(c3nn[nH]n3)C(=O)NC(c3ccc(OCCCC(F)(F)C(F)(F)F)cc3)(C(F)(F)F)C2)cc1 (stereo not drawn) [Example 118]
14 | 1 | Cc1ccc(C2=C(C(=O)Nc3ccc(O)cc3)C(=O)NC(c3ccc(OCCCC(F)(F)F)cc3)(C(F)(F)F)C2)cc1 (stereo not drawn) [Example 122]
20 | 1 | Cc1ccc(C2=C(C(=O)Nc3ccno3)C(=O)NC(c3ccc(OCCC(F)(F)F)cc3)(C(F)(F)F)C2)cc1 (stereo not drawn) [Example 130]
1520 | 127 | COc1ccc(NC(=O)C2=C(c3ccc(C)cc3)C(F)(F)C(c3ccc(OCCC(F)(F)F)cc3)(C(F)(F)F)NC2=O)cc1 (stereo not drawn) [Example 133]
156 | 4 | COc1ccc(C2=C(n3cnnn3)C(=O)NC(c3ccc(OCCCC(F)(F)F)cc3)(C(F)(F)F)C2)cc1 (stereo not drawn) [Example 143]
397 | 25 | N#CC1=C(c2ccc3ccccc3c2)CC(c2ccc(OCCCC(F)(F)F)cc2)(C(F)(F)F)NC1=O (stereo not drawn) [Example 146]
102 | 9 | COc1ccc(NC(=O)C2=C(c3ccc(C)cc3C)CC(c3ccc(OCCCC(F)(F)F)cc3)(C(F)(F)F)NC2=O)cc1 (stereo not drawn) [Example 148]
34 | 8 | Cc1ccc(C2=C(NC(=O)c3nnc(C)o3)C(=O)NC(c3ccc(OCCCC(F)(F)F)cc3)(C(F)(F)F)C2)cc1 (stereo not drawn) [Example 154]
168 | 84 | Cc1ccc(C2=C(NC(=O)c3oncc3C)C(=O)NC(c3ccc(OCCCC(F)(F)F)cc3)(C(F)(F)F)C2)cc1 (stereo not drawn) [Example 157]
302 | 75 | Cc1ccc(C2=C(NC(=O)c3ccc(Cl)nn3)C(=O)NC(c3ccc(OCCCC(F)(F)F)cc3)(C(F)(F)F)C2)cc1 (stereo not drawn) [Example 158]
1180 | 47 | COc1ccc(C(=O)NC2=C(c3ccc(C)cc3)C(F)(F)C(c3ccc(OCCCC(F)(F)F)cc3)(C(F)(F)F)NC2=O)cc1 (stereo not drawn) [Example 163]
60 | 8 | Cc1ccc(C2=C(C(=O)Nc3ccc(F)cc3)C(=O)NC(c3ccc(Oc4ccccc4)cc3)(C(F)(F)F)C2)cc1 (stereo not drawn) [Example 165]
8 | 2 | O=C1NC(c2ccc(OCCCC(F)(F)F)cc2)(C(F)(F)F)CC(c2ccc(OC(F)F)cc2)=C1NC(=O)c1ccno1 (stereo not drawn) [Example 167]
724 | 57 | Cc1ccc(C2=C(NC(=O)c3cc(F)ccc3Cl)C(=O)NC(c3ccc(OCCCC(F)(F)F)cc3)(C(F)(F)F)C2)cc1 (stereo not drawn) [Example 171]
24 | 2 | Cc1ccc(C2=C(NC(=O)c3cc(Br)no3)C(=O)NC(c3ccc(OCCCC(F)(F)F)cc3)(C(F)(F)F)C2)cc1 (stereo not drawn) [Example 179]
36 | 30 | Cc1ccc(C2=C(NC(=O)c3cc(OCc4ccccc4)no3)C(=O)NC(c3ccc(OCCCC(F)(F)F)cc3)(C(F)(F)F)C2)cc1 (stereo not drawn) [Example 180]
21 | 10 | COc1cnc(NC(=O)C2=C(c3ccc(C)cc3)CC(c3ccc(OCCCCC(F)(F)F)cc3)(C(F)(F)F)NC2=O)cn1 (stereo not drawn) [Example 273]
